Common to all, as to assay: NCI tumour cell line growth inhibition, 48 h
Experiment [1] has as its system 786-0.
The test system of experiment [2] is CCRF-CEM.
Experiment [3] deals with EKVX.
The test system of experiment [4] is HOP-62.
The subject of experiment [5] is IGROV-1.
Experiment [6] relates to KM12.
The test system of experiment [7] is NCI-H226.
Experiment [8] has as its system NCI-H23.
Experiment [9] deals with OVCAR-3.
Experiment [10] relates to OVCAR-5.
In experiment [11] the test system is RXF 393.
Experiment [12] deals with SF-268.
Experiment [13] concerns SF-539.
Experiment [14] relates to SR.
Experiment [15] concerns SW-620.
For experiment [16], the system named is U-251.
Experiment [17] deals with SK-MEL-28.

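48-hour exposure; five concentrations; linearly interpolated endpoints. GI50: concentration for 50% inhibition of growth.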 Active and inactive are the calls of the source. Rule as the data show it: active = GI50 up to about 1.1 µM and inactive = higher. Where only a bound is given, the exact number is not on record here.

`O=c1cccccc1NCCNc1cccccc1=O`: the GI50 in experiment [1], in [2], in experiment [3], in experiment [4], in experiment [5] and in [6] was > 100 µM (inactive) throughout. Moreover, the GI50 in experiment [7] was > 100 µM (inactive); in experiment [8], > 100 µM (inactive); in experiment [9], > 100 µM (inactive); in experiment [10] it was > 100 µM (inactive); in experiment [11], 68.2 µM (inactive); in experiment [12] it was > 100 µM (inactive). Also, the GI50 in experiment [13], in experiment [14], in experiment [15] and in experiment [16] was > 100 µM (inactive) each time.
For the molecule `CCOC(=O)NC(=O)c1cn(C2OC(COC(=O)CCCCCCCCC(=O)OCC3OC(n4cc(C(=O)NC(=O)OCC)c(=O)[nH]c4=O)C4OC(C)(C)OC34)C3OC(C)(C)OC32)c(=O)[nH]c1=O` (configuration not stated), the GI50 in experiment [1] was > 100 µM (inactive); in experiment [2], 30.1 µM (inactive); in experiment [3], > 100 µM (inactive); in experiment [4], > 100 µM (inactive); in [5], > 100 µM (inactive); in experiment [6], 73.8 µM (inactive). The GI50 was 77.4 µM (inactive) in experiment [7]; > 100 µM (inactive) in experiment [8]; 75.9 µM (inactive) in experiment [9]; > 100 µM (inactive) in experiment [10]; > 100 µM (inactive) in experiment [11]; 70.5 µM (inactive) in experiment [12]. Further, the GI50 was > 100 µM (inactive) in [13], 84.1 µM (inactive) in experiment [17], 78.5 µM (inactive) in [14] and 35.8 µM (inactive) in [15].
Turning to `COc1cc(C(C#N)NNC(=O)c2ccccc2O)ccc1O` (configuration not stated), the GI50 in experiment [1] was 2.7 µM (inactive); in experiment [2], 2.08 µM (inactive); in [4], 4.78 µM (inactive); in experiment [5], 1.54 µM (inactive); in [6] it was 3.85 µM (inactive); in experiment [7], 2.05 µM (inactive). Also, the GI50 in experiment [8] was 2.07 µM (inactive); in [9] it was 3.44 µM (inactive); in [10] it was 10.7 µM (inactive); in experiment [11], 0.349 µM (active); in experiment [12], 0.368 µM (active); in [13], 3 µM (inactive). Further, the GI50 in experiment [17] is 30.6 µM (inactive); in [14], > 100 µM (inactive); in experiment [15], 8.32 µM (inactive); in experiment [16], 0.843 µM (active).
Consider `CCCCCCCCCC(=O)CC(=O)c1ccc(O)cc1O`, for which the GI50 in [1] was 33.5 µM (inactive); in experiment [2] it was 33.9 µM (inactive); in experiment [3], 25.9 µM (inactive); in [4], 19.8 µM (inactive); in experiment [5] it was 31.5 µM (inactive); in experiment [6], 21.4 µM (inactive). Moreover, the GI50 in [7] was 24.3 µM (inactive); in experiment [8] it was 25.6 µM (inactive); in [9], 22.6 µM (inactive); in experiment [10] it was 21.1 µM (inactive); in experiment [11], 28.4 µM (inactive); in experiment [12] it was 40.8 µM (inactive). The GI50 in experiment [13] was 26.5 µM (inactive); in experiment [17], 39.8 µM (inactive); in experiment [14], 15.8 µM (inactive); in experiment [15], 36.5 µM (inactive); in experiment [16], 26.9 µM (inactive).
On to `Cc1csc(=S)n1OC(=O)NC1CCCCC1`, for which the GI50 in experiment [1] was 19 µM (inactive); in experiment [2], 9.57 µM (inactive); in [3], > 100 µM (inactive); in experiment [4] it was > 100 µM (inactive); in experiment [5] it was > 100 µM (inactive); in experiment [6] it was > 80.9 µM (inactive). The GI50 was > 100 µM (inactive) in [7]; > 21.9 µM (inactive) in [8]; > 63.8 µM (inactive) in [9]; > 100 µM (inactive) in [11]; > 87.1 µM (inactive) in [12]; > 100 µM (inactive) in experiment [13]. The GI50 in experiment [17] was > 34.6 µM (inactive); in experiment [14] it was 12.1 µM (inactive); in [15], > 56.8 µM (inactive); in experiment [16], 63.8 µM (inactive).
With `CCOC(=O)C(Cc1c[nH]c2cc([N+](=O)[O-])ccc12)NS(=O)(=O)c1ccc2ccccc2c1` (configuration not stated), the GI50 in [1] is 26.5 µM (inactive); in [2] it was 20.1 µM (inactive); in experiment [3], 29.1 µM (inactive); in experiment [4], 15.7 µM (inactive); in experiment [5] it was 21.4 µM (inactive); in experiment [6], 17.1 µM (inactive). In addition, the GI50 in experiment [7] was 16.7 µM (inactive); in experiment [8], 21.9 µM (inactive); in experiment [9] it was 16.7 µM (inactive); in experiment [11] it was 14.7 µM (inactive); in [12], 20.2 µM (inactive); in [13] it was 17.5 µM (inactive). Further, the GI50 in experiment [17] was 18.2 µM (inactive); in experiment [14] it was 17.5 µM (inactive); in experiment [15], 21.2 µM (inactive); in experiment [16] it was 17.6 µM (inactive).
For `CCOC(=O)NC(=O)c1cn(CCOC(=O)CCCCCCCCC(=O)OCCn2cc(C(=O)NC(=O)OCC)c(=O)[nH]c2=O)c(=O)[nH]c1=O`, the GI50 in experiment [1], in experiment [2], in [3], in experiment [4], in experiment [5] and in experiment [6] was > 100 µM (inactive) throughout. Besides, the GI50 in experiment [7] was > 100 µM (inactive); in [8] it was 23.9 µM (inactive); in [9], > 100 µM (inactive); in experiment [10], > 100 µM (inactive); in experiment [11], > 100 µM (inactive); in experiment [12], > 100 µM (inactive). The GI50 in [13], in experiment [17], in [14] and in experiment [15] was > 100 µM (inactive) throughout.
In the case of `O=[As](O)(O)c1cc(/N=N/c2ccc(-c3ccc(/N=N/c4cc([As](=O)(O)O)c(O)cc4O)cc3)cc2)c(O)cc1O`, the GI50 was > 100 µM (inactive) in experiment [1]; > 45.8 µM (inactive) in experiment [2]; > 100 µM (inactive) in experiment [3]; > 100 µM (inactive) in experiment [4]; > 100 µM (inactive) in experiment [5]; > 100 µM (inactive) in experiment [6]. Besides, the GI50 in experiment [7] was > 100 µM (inactive); in experiment [8], > 100 µM (inactive); in experiment [9], > 52.8 µM (inactive); in experiment [10] it was > 69.5 µM (inactive); in [11], > 100 µM (inactive); in experiment [12], > 100 µM (inactive). Moreover, the GI50 in [13] was > 74.1 µM (inactive); in [17], > 100 µM (inactive); in experiment [14] it was > 100 µM (inactive); in experiment [15], > 100 µM (inactive); in experiment [16] it was > 100 µM (inactive).
Regarding `Cc1cc(C)n(-c2ccnc3cc(Cl)ccc23)n1`, the GI50 in [1], in experiment [2], in experiment [3], in [4], in [5] and in experiment [6] was > 100 µM (inactive) in each case. For the same molecule, the GI50 in experiment [7], in experiment [8], in experiment [9], in experiment [10], in [11] and in [12] was > 100 µM (inactive) in each case. Further, the GI50 in [13], in experiment [17], in experiment [14], in experiment [15] and in experiment [16] was > 100 µM (inactive) each time.

Values taken from ChEMBL document CHEMBL1201862, “PubChem BioAssay data set” (2004).
